By IC50 is commonly meant the concentration needed to halve the response being measured.

This assay deals with Human neutrophil elastase (Homo sapiens (Human), UniProt P08246). Kind of assay: Human Neutrophil Elastase Assay. The assay is classed as biochemical. The conditions noted are these: substrate MeOSuc-Ala-Ala-Pro-Val-AMC 250 μM, pH 7.5.
Chain of Human neutrophil elastase (P08246 30-247): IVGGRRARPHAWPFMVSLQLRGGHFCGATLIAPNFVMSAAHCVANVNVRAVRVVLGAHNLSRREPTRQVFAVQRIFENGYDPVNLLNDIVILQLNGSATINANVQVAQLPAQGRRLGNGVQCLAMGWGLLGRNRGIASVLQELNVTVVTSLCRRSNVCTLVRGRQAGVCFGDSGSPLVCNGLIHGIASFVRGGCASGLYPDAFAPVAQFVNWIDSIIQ
Consider `CN(C)C(=O)c1cc(C#N)ccc1[C@@H]1C2=C(CCC2=O)N(c2cccc(C(F)(F)F)c2)C(=O)N1C` [Example 2.2], for which the IC50 came out at 1.1 nM. Compound `CN1C(=O)N(c2cccc(C(F)(F)F)c2)C2=C(C(=O)CC2)[C@H]1c1ccc(C#N)cc1C(=O)N1CCOCC1` [Example 2.3] came in with an IC50 of 2.9 nM.

For the compound `CN1CCN(C(=O)c2cc(C#N)ccc2[C@@H]2C3=C(CCC3=O)N(c3cccc(C(F)(F)F)c3)C(=O)N2C)CC1` [Example 2.4], half-maximal inhibition (IC50) was put at 3.1 nM. In the case of `CN1C(=O)N(c2cccc(C(F)(F)F)c2)C2=C(C(=O)CC2)C1c1ccc(C#N)cc1C(=O)NC1CCC(O)C1` (stereo not shown) [Example 3, 5-Cyano-N-(3-hydroxy-cyclopentyl)-2-[3-methyl-2,5-dioxo-1-(3-trifluoromethyl-phenyl)-2,3,4,5,6,7-hexahydro-1H-cyclopentapyrimidin-4-yl]-benzamide] it was 7.6 nM; in that of `CN(C)CCN(C)C(=O)c1cc(C#N)ccc1C1C2=C(CCC2=O)N(c2cccc(C(F)(F)F)c2)C(=O)N1C` (stereo not shown) [Example 3.1], 1.3 nM; in that of `CCN1CCN(C(=O)c2cc(C#N)ccc2C2C3=C(CCC3=O)N(c3cccc(C(F)(F)F)c3)C(=O)N2C)CC1` (stereo not shown) [Example 3.2], 8.1 nM. The compound `CN1C(=O)N(c2cccc(C(F)(F)F)c2)C2=C(C(=O)CC2)C1c1ccc(C#N)cc1C(=O)N1CCN2CCCC2C1` (stereo not shown) [Example 3.3] came in with an IC50 of 7.5 nM. In the case of `CC(C)N1CCN(C(=O)c2cc(C#N)ccc2C2C3=C(CCC3=O)N(c3cccc(C(F)(F)F)c3)C(=O)N2C)CC1` (stereo not shown) [Example 3.4] it was 7.3 nM. Compound `CN1C(=O)N(c2cccc(C(F)(F)F)c2)C2=C(C(=O)CC2)C1c1ccc(C#N)cc1C(=O)N1C[C@H]2C[C@@H]1C[N+]2(C)C` (stereo partly shown) [Example 3.5] came in with an IC50 of 7 nM. Take `CN1C(=O)N(c2cccc(C(F)(F)F)c2)C2=C(C(=O)CC2)C1c1ccc(C#N)cc1C(=O)N1CCC(N)CC1` (stereo not shown) [Example 4.1]: half-maximal inhibition (IC50) required 15.1 nM.

In the case of `CN1C(=O)N(c2cccc(C(F)(F)F)c2)C2=C(C(=O)CC2)C1c1ccc(C#N)cc1C(=O)NC1CCNCC1` (stereo not shown) [Example 4.2], 7.1 nM corresponded to half-maximal inhibition (IC50). The value for `CN1C(=O)N(c2cccc(C(F)(F)F)c2)C2=C(C(=O)CC2)C1c1ccc(C#N)cc1C(=O)NCCN` (stereo not shown) [Example 4.3] was 3.1 nM. Compound `CNCCNC(=O)c1cc(C#N)ccc1C1C2=C(CCC2=O)N(c2cccc(C(F)(F)F)c2)C(=O)N1C` (stereo not shown) [Example 4.4] came in with an IC50 of 4.7 nM. In the case of `CN(CCN)C(=O)c1cc(C#N)ccc1C1C2=C(CCC2=O)N(c2cccc(C(F)(F)F)c2)C(=O)N1C` (stereo not shown) [Example 4.5] it was 2 nM; in that of `CN1C(=O)N(c2cccc(C(F)(F)F)c2)C2=C(C(=O)CC2)C1c1ccc(C#N)cc1C(=O)N[C@H]1CCNC1` (stereo partly shown) [Example 4.6], 6.9 nM; in that of `CN1C(=O)N(c2cccc(C(F)(F)F)c2)C2=C(C(=O)CC2)C1c1ccc(C#N)cc1C(=O)N1CC[C@H](N)C1` (stereo partly shown) [Example 4.7], 3.3 nM. Compound `CN1C(=O)N(c2cccc(C(F)(F)F)c2)C2=C(C(=O)CC2)C1c1ccc(C#N)cc1C(=O)N1CC[C@@H](N)C1` (stereo partly shown) [Example 4.8] returned a 50% inhibitory concentration (IC50) of 5.9 nM. The value for `CN1C(=O)N(c2cccc(C(F)(F)F)c2)C2=C(C(=O)CC2)C1c1ccc(C#N)cc1C(=O)N[C@@H]1CCNC1` (stereo partly shown) [Example 4.9] was 6.4 nM; that for `CNCCN(C)C(=O)c1cc(C#N)ccc1C1C2=C(CCC2=O)N(c2cccc(C(F)(F)F)c2)C(=O)N1C` (stereo not shown) [Example 4.10] was 1.4 nM; that for `CN1C(=O)N(c2cccc(C(F)(F)F)c2)C2=C(C(=O)CC2)C1c1ccc(C#N)cc1C(=O)NCC(C)(C)N` (stereo not shown) [Example 4.11] was 6.2 nM. In the case of `CN[C@H]1CCN(C(=O)c2cc(C#N)ccc2C2C3=C(CCC3=O)N(c3cccc(C(F)(F)F)c3)C(=O)N2C)C1` (stereo partly shown) [Example 4.12], the half-maximal inhibitory concentration (IC50) is 3.8 nM. The value for `CN1C(=O)N(c2cccc(C(F)(F)F)c2)C2=C(C(=O)CC2)C1c1ccc(C#N)cc1C(=O)N[C@H]1C[C@@H]1N` (stereo partly shown) [Example 4.13] was 5.6 nM.

The values above are taken from patent US9458113B2 (Boehringer Ingelheim International GmbH, priority 2014, dated 2016).
